The species named for series [1] is Mus musculus. The series can be described thus: Compound was evaluated for its potency in CDF1 mice and the abdominal fat weight was determined. Format: functional, Abdomen.
For series [2], the species on record is Mus musculus. Description: Compound was evaluated for its potency in CDF1 mice and the serum metabolite levels were determined. It is filed as ADME, organism-based.
The species named for series [3] is Mus musculus. Description: Feed efficiency was calculated by dividing body weight gain by feed consumption in mouse. Format: functional.
Series [4] is filed under the species Mus musculus. Description: Compound was evaluated for its potency in CDF1 mice and the serum cholesterol levels were determined. It is filed as ADME, organism-based.
For series [5], the species on record is Mus musculus. The series can be described thus: Evaluated for potency in CDF1 mice and the ability of it to decrease feed consumption was determined. It is filed as functional.
The species entered for series [6] is Mus musculus. The series can be described thus: Evaluated for potency in CDF1 mice and the inhibition of body weight gain was determined. Format: functional.
For series [7], the species on record is Mus musculus. Description: Compound was evaluated for its potency in CDF1 mice and the serum triglyceride levels were determined. Format: ADME, organism-based.
For series [8], the species on record is Mus musculus. Description: Compound was evaluated for its potency in CDF1 mice and the abdominal fat weight was determined. Format: functional, Abdomen.

As to `CC[C@H](CC[C@@H](C)[C@H]1CC[C@H]2[C@@H]3CCC4=CC(=O)CC[C@]4(C)[C@H]3CC[C@]12C)C(C)C`, the Abdominal fat in series [1] came out at 1 g. Besides, in series [2], the Serum metabolite stood at 0 mg/dL. In addition, the Feed efficiency in series [3] is reported as 0.08. In addition, in series [4], the Serum cholesterol stood at 164.6 mg/dL. The compound further returned a Feed consumption in series [5] of 4.94 g/day. This compound also registered a Body weight gain in series [6] of 0.4 g/day. The Serum triglyceride in series [7] turned out to be 188.3 mg/dL.
In series [1], `CC(C)CCC[C@@H](C)[C@H]1CC[C@H]2[C@@H]3CC(=O)C4=CC(=O)CC[C@]4(C)[C@H]3CC[C@]12C` gave an Abdominal fat of 0.3 g. Further, the Serum metabolite in series [2] was determined as 0 mg/dL. In series [3], the Feed efficiency was -0.06. In series [4], this compound displayed a Serum cholesterol of 110 mg/dL. In series [5], this compound returned a Feed consumption of 6 g/day. Besides, in series [6], the Body weight gain is -0.36 g/day. Also, in series [7], the Serum triglyceride worked out at 133.6 mg/dL.
The compound `CC(C)CCC[C@@H](C)[C@H]1CC[C@H]2[C@@H]3CCC4=CC(=O)C=C[C@]4(C)[C@H]3CC[C@]12C` gave an Abdominal fat in series [1] of 0.61 g. The Serum metabolite in series [2] was determined as 0 mg/dL. Further, the Feed efficiency in series [3] is given as 0.03. For the same compound, the Serum cholesterol in series [4] was determined as 165.4 mg/dL. The compound also gave a Feed consumption in series [5] of 4.94 g/day. For the same compound, the Body weight gain in series [6] came out at 0.15 g/day. The Serum triglyceride in series [7] worked out at 266.9 mg/dL.
In turn, `CC(C)CCC[C@@H](C)[C@H]1CC[C@H]2[C@@H]3CC=C4C=C(N5CCCC5)CC[C@]4(C)[C@H]3CC[C@]12C` had an Abdominal fat in series [1] of 0.41 g. The Serum metabolite in series [2] is 22 mg/dL. For the same compound, the Feed efficiency in series [3] is recorded as -0.03. In addition, the Serum cholesterol in series [4] was determined as 158.1 mg/dL. Besides, the Feed consumption in series [5] turned out to be 6.1 g/day. Besides, the Body weight gain in series [6] is -0.18 g/day. The Serum triglyceride in series [7] is 277.7 mg/dL.
In series [1], `CC(C)CCC[C@@H](C)[C@H]1CC[C@H]2[C@@H]3CC[C@H]4CC(=O)CC[C@]4(C)[C@H]3CC[C@]12C` [CHOLESTAN-3-ONE] returned an Abdominal fat of 0.92 g. The Serum metabolite in series [2] was 23 mg/dL. For the same compound, the Feed efficiency in series [3] was 0.06. Besides, the Serum cholesterol in series [4] is 134.1 mg/dL. Also, the Feed consumption in series [5] was 4.6 g/day. The same compound came in with a Body weight gain in series [6] of 0.28 g/day. In series [7], this compound came in with a Serum triglyceride of 201.7 mg/dL.
In series [8], `CC(C)CCC[C@@H](C)[C@H]1CC[C@H]2[C@@H]3CCC4=CC(=O)CC[C@]4(C)[C@H]3CC[C@]12C` [4-CHOLESTEN 3-ONE] registered an Abdominal fat of 0.68 g. In series [2], the Serum metabolite is 22 mg/dL. In addition, the Feed efficiency in series [3] was 0.06. This compound displayed a Serum cholesterol in series [4] of 115.8 mg/dL. This compound had a Feed consumption in series [5] of 5.43 g/day. The same compound came in with a Body weight gain in series [6] of 0.35 g/day. For the same compound, the Serum triglyceride in series [7] turned out to be 218.3 mg/dL.
In series [1], `CC(C)CCC[C@@H](C)[C@H]1CC[C@H]2[C@@H]3CC[C@@]45O[C@@H]4C(=O)CC[C@]5(C)[C@H]3CC[C@]12C` gave an Abdominal fat of 1.12 g. In addition, the Serum metabolite in series [2] turned out to be 0 mg/dL. Besides, in series [3], the Feed efficiency is 0.08. The Serum cholesterol in series [4] came out at 141.6 mg/dL. In series [5], this compound showed a Feed consumption of 6.14 g/day. Besides, in series [6], the Body weight gain was 0.46 g/day. Also, in series [7], the Serum triglyceride came to 218 mg/dL.
In series [1], `CC(C)CCC[C@@H](C)[C@H]1CC[C@H]2[C@@H]3C=CC4=CC(=O)CC[C@]4(C)[C@H]3CC[C@]12C` gave an Abdominal fat of 0.9 g. The Serum metabolite in series [2] came out at 22 mg/dL. In addition, in series [3], the Feed efficiency was 0.07. For the same compound, in series [4], the Serum cholesterol was determined as 112.7 mg/dL. For the same compound, in series [5], the Feed consumption was found to be 4.71 g/day. The compound also yielded a Body weight gain in series [6] of 0.32 g/day. The compound further registered a Serum triglyceride in series [7] of 172.6 mg/dL.
Compound `CC(C)CCC[C@@H](C)[C@H]1CC[C@H]2[C@@H]3C[C@H](Br)C4=CC(=O)CC[C@]4(C)[C@H]3CC[C@]12C` gave an Abdominal fat in series [1] of 0.81 g. The Serum metabolite in series [2] stood at 22 mg/dL. In series [3], the Feed efficiency is 0.06. Besides, in series [4], the Serum cholesterol came out at 176.8 mg/dL. The compound further yielded a Feed consumption in series [5] of 4.2 g/day. Besides, the Body weight gain in series [6] is 0.26 g/day. In addition, the Serum triglyceride in series [7] was determined as 257.3 mg/dL.

The values are drawn from ChEMBL document CHEMBL1130921, “The cholesterol metabolite cholest-4-en-3-one and its 3-oxo derivatives suppress body weight gain, body fat accumulation and serum lipid concentration in mice” (Bioorg Med Chem Lett, 1998).
